# Where two headings read alike, the source gives them in different places.
# Tests used:
# [1] = tested on: L. donovani intramacrophage amastigotes; assay: L. donovani intramacrophage compound sensitivity assay; type: cell-based; conditions: Leishmania donovani; L. donovani intramacrophage amastigotes; ≥3 independent replicates; read-out: Intra-macrophage EC50
# Description: (§1) L. donovani intramacrophage ([7]), HepG2 ([55]), T. brucei ([56]), and L. donovani promastigote ([57]) compound sensitivity assays were carried out as described previously. Human HepG2 and THP-1 cells used in these assays were provided by the ATCC. Data were processed by using GRAFIT (version 5.0.4; Erithacus Software) and fitted to a 2-parameter equation to obtain the effective concentration inhibiting growth by 50% (EC50). Data are presented as the means of results from at least two independent experiments.
# [2] = tested on: L. donovani promastigotes; assay: L. donovani promastigote compound sensitivity assay (with/without metal salts); conditions: for EC50: Leishmania donovani; for Shift: promastigotes; for Tolerated concentration of exogenous metal salt: L. donovani promastigotes
# Description: (§2) The clonal Leishmania donovani cell line LdBOB (derived from MHOM/SD/62/1S-CL2D) was grown as promastigotes at 28°C, as described previously ([53]). Bloodstream-form T. brucei MiTat 1.2 clone 221a and its derived subline, 2T1, were cultured at 37°C in the presence of 5% CO2 in HMI9-T medium, as described previously ([54]). The human carcinoma HepG2 cell line was grown at 37°C with 5% CO2 in minimal Eagle's medium (MEM) with GlutaMAX (1×; Sigma-Aldrich), nonessential amino acids (Sigma-Aldrich), and 10% FBS. Human HepG2 and THP-1 cells used in this study were ethically sourced from the ATCC.
# as §1
# (§3) In the first instance, the maximum tolerated concentrations of ZnCl2, CaCl2, CuCl2, MgCl2, MnCl2, and FeCl2 were determined for each cell type. […] Standard drug sensitivity assays were carried out (as described above) for each cell type with compounds 1, 2, and 3 in the presence and absence of the maximum tolerated concentration of metal salt.
# [3] = tested on: T. brucei bloodstream forms; assay: microbe, parasite or virus in culture
# Description: as §2, §1, §3
# THP-1 cells = assay: THP-1 cell sensitivity; type: cell-based; conditions: Homo sapiens
# Description: as §1
# HepG2 cells = assay: HepG2 compound sensitivity assay (with/without ZnCl2); conditions: for EC50: Homo sapiens
# Description: as §2, §1, §3
# [4] = Spectrophotometric UV-Vis titration and Job's plot of binding to divalent cations; type: physicochemical; conditions: combined concentration 200 μM in methanol; absorbance 475/390/375 nm
# Description: UV-visible (UV-Vis) titrations were carried out essentially as described previously ([65], [66]). Aliquots of metal divalent cations (concentrated stocks were made initially in water and then diluted in methanol) were added to a fixed concentration of 50 μM 8-HNT compound in methanol. After each aliquot addition, the incubation mixture was left to stabilize for 5 min at 25°C prior to scanning. Wavelength scanning was carried out at between 260 and 510 nm by using a UV-2401 PC UV-Vis spectrophotometer (Shimadzu). For Job's plot analyses ([66]), the combined concentration of 8-HNT and cation was fixed at 200 μM, and only the molar ratio of cation versus 8-HNT compound varied. Changes of the absorption at 475, 390, and 375 nm were indicative of cation complex formation with compounds 1 to 3, respectively. Specific absorbance at these wavelengths was determined and plotted against the molar ratio of compound to cation to determine complex stoichiometry ([66]).
# [5] = tested on: L. donovani promastigotes; assay: Generation of an 8-HNT-resistant L. donovani cell line; type: cell-based, Leishmania donovani
# Description: Resistant lines were generated as described previously ([31]), using compound 2 in L. donovani promastigotes. Starting at a sublethal concentration of 1 μM compound 2 in 3 independent cultures, concentrations were increased in a stepwise manner. However, after a total of 270 days in culture, promastigotes were unable to grow in ≥10 μM compound 2.
# [6] = Cell-free fluorescence-based (FluoZin-3 salt) zinc binding assay; conditions: compounds and DFMO 1 to 100 μM; TPEN 10 μM
# Description: ZnCl2 (5 μM) was incubated with various concentrations of our three 8-HNT compounds followed by the addition of 125 nM FluoZin-3 salt dye. Reaction mixtures were preincubated for 20 min at RT and then aliquoted into a black 96-well plate. Fluorescence was then measured with a Pherastar spectrophotometer (excitation at 485 nm and emission at 520 nm). Calculations were carried out in Excel.
# [7] = tested on: T. brucei bloodstream forms; assay: Intracellular Zn2+ measurement with FluoZin-3 in T. brucei; type: cell-based, Trypanosoma brucei; conditions: 8-HNT compounds 5 μM, TPEN 8 μM
# Description: (§4) L. donovani promastigotes were grown to 2 × 10^7 cells ml^−1 and harvested by centrifugation (10 min at 1,600 × g). T. brucei bloodstream forms were grown to 2 × 10^6 cells ml^−1 and harvested by centrifugation (5 min at 800 × g). Parasites were washed with PBS and resuspended to a final concentration of 2.5 × 10^7 parasites ml^−1 in fresh PBS. Cells were incubated with FluoZin-3 (final concentration, 5 μM), pluronic acid (final concentration, 5 μM), and 14 mM glucose (T. brucei only). Parasites were incubated for 60 min at room temperature (RT), washed three times with PBS, and then resuspended in PBS (with 14 mM glucose for T. brucei only) before being aliquoted into a black, clear-bottomed 96-well plate (final concentration of 2.5 × 10^7 cells ml^−1). 8-HNT or control compounds were added directly to cells, and fluorescence was measured immediately by using a Pherastar fluorescence spectrophotometer (excitation at 485 nm and emission at 520 nm). Calculations were performed in Excel. […] Parasites were confirmed to be viable by microscopy after the completion of the experiment.
# [8] = tested on: L. donovani promastigotes; assay: Intracellular Zn2+ measurement with FluoZin-3 in L. donovani; type: cell-based, Leishmania donovani; conditions: 8-HNT compounds 5 μM, TPEN 8 μM
# Description: as §4
# L. donovani = conditions: cited from earlier work
# T. brucei = tested on: T. brucei; parameters: method as in PMID 11849643; conditions: cited from earlier work
# L. major = tested on: L. major; parameters: method as in PMID 7768775; conditions: cited from earlier work
# [9] = read-out: EC50 values, WT, promastigotes, absence of cation, FeCl2 experiment
# [10] = read-out: EC50 values, WT, promastigotes, absence of cation, ZnCl2 experiment
# [11] = read-out: L. donovani pro EC50, promastigotes (Fig. 1)
# [12] = Trypanosoma brucei, read-out: Mean EC50 ± SD, Plus cation, plus CaCl2 (3 mM)
# [13] = Trypanosoma brucei, read-out: Mean EC50 ± SD, Plus cation, plus CuCl2 (5 μM)
# [14] = Trypanosoma brucei, read-out: Mean EC50 ± SD, Plus cation, plus MgCl2 (1 mM)
# [15] = Trypanosoma brucei, read-out: Mean EC50 ± SD, Plus cation, plus MnCl2 (10 μM)
# [16] = Trypanosoma brucei, read-out: Mean EC50 ± SD, WT, absence of cation, CaCl2 experiment
# [17] = Trypanosoma brucei, read-out: Mean EC50 ± SD, WT, absence of cation, CuCl2 experiment
# [18] = Trypanosoma brucei, read-out: Mean EC50 ± SD, WT, absence of cation, FeCl2 experiment
# [19] = Trypanosoma brucei, read-out: Mean EC50 ± SD, WT, absence of cation, MgCl2 experiment
# [20] = Trypanosoma brucei, read-out: Mean EC50 ± SD, WT, absence of cation, MnCl2 experiment
# [21] = Trypanosoma brucei, read-out: Mean EC50 ± SD, WT, absence of cation, ZnCl2 experiment
# [22] = Trypanosoma brucei, read-out: T. brucei bsf EC50, bloodstream form (Fig. 1)
# [23] = read-out: EC50 against bloodstream-form T. brucei, substance alone (Fig. S2), mean ± SEM
smiles,measurement,setting,value
COc1ccccc1-c1nc(-c2nc(C)n[nH]2)c(O)c2ncccc12 [Compound 2],EC50,[1],600 nM
same,EC50,[2]; [9],100 ± 10 nM
same,EC50,[2]; [10],200 ± 40 nM
same,EC50,[2]; [11],180 nM
same,Shift,[2]; FeCl2 (100 μM) vs WT,6.8 fold
same,Shift,[2]; ZnCl2 (100 μM) vs WT,265.7 fold
same,Shift (fold),[3]; CaCl2 (3 mM) vs WT,1.0 fold
same,Shift (fold),[3]; CuCl2 (5 μM) vs WT,0.9 fold
same,Shift (fold),[3]; FeCl2 (10 μM) vs WT,2.4 fold
same,Shift (fold),[3]; MgCl2 (1 mM) vs WT,1.1 fold
same,Shift (fold),[3]; MnCl2 (10 μM) vs WT,0.8 fold
same,EC50,[3]; [12],1300 ± 60 nM
same,EC50,[3]; [13],1300 ± 60 nM
same,EC50,[3]; [14],900 ± 20 nM
same,EC50,[3]; [15],1200 ± 50 nM
same,EC50,[3]; [16],1200 ± 40 nM
same,EC50,[3]; [17],1400 ± 70 nM
same,EC50,[3]; [18],700 ± 60 nM
same,EC50,[3]; [19],800 ± 50 nM
same,EC50,[3]; [20],1400 ± 90 nM
same,EC50,[3]; [21],800 ± 50 nM
same,EC50,[3]; [22],790 nM
same,Shift (fold),[3]; ZnCl2 (200 μM) vs WT,19.7 fold
same,EC50,THP-1 cells,> 50000 nM
same,Shift of EC50 for HepG2 cells by ZnCl2,HepG2 cells; 100 μM ZnCl2,7 fold
same,EC50,"HepG2 cells; HepG2, read-out: EC50 for HepG2 cells, absence of exogenous ZnCl2",47800 ± 3600 nM
same,EC50,"HepG2 cells; HepG2, read-out: HepG2 EC50",15900 nM
same,"Job's plot intercept, molar fraction (compound to Zn^2+)",[4],0.31
same,Concentration in which promastigotes were unable to grow,"[5]; after 270 days in culture, start 1 μM",≥ 10 µM
same,Development of resistance in L. donovani promastigotes,[5]; stepwise increasing concentrations over a 9-month period,could not develop any resistance
[Cl][Cu][Cl] [CuCl2],Maximum concentration of metal salt having a minimal impact on cell growth,[3]; T. brucei,5 µM
[Ca+2].[Cl-].[Cl-] [CaCl2],Maximum concentration of metal salt having a minimal impact on cell growth,[3]; T. brucei,3000 µM
CC(NC(=O)c1ncc2cccnc2c1O)c1ccc(F)cc1 (stereo not drawn) [Compound 3],EC50,[1],200 nM
same,EC50,[2]; [9],100 ± 4 nM
same,EC50,[2]; [10],200 ± 10 nM
same,EC50,[2]; [11],220 nM
same,Shift,[2]; FeCl2 (100 μM) vs WT,1.9 fold
same,Shift,[2]; ZnCl2 (100 μM) vs WT,120.1 fold
same,Shift (fold),[3]; CaCl2 (3 mM) vs WT,0.9 fold
same,Shift (fold),[3]; CuCl2 (5 μM) vs WT,1.1 fold
same,Shift (fold),[3]; FeCl2 (10 μM) vs WT,3.7 fold
same,Shift (fold),[3]; MgCl2 (1 mM) vs WT,0.9 fold
same,Shift (fold),[3]; MnCl2 (10 μM) vs WT,1.3 fold
same,EC50,[3]; [12],700 ± 40 nM
same,EC50,[3]; [13],800 ± 60 nM
same,EC50,[3]; [14],700 ± 50 nM
same,EC50,[3]; [15],1010 ± 40 nM
same,EC50,[3]; [16],800 ± 100 nM
same,EC50,[3]; [17],800 ± 50 nM
same,EC50,[3]; [18],900 ± 30 nM
same,EC50,[3]; [19],800 ± 50 nM
same,EC50,[3]; [20],800 ± 50 nM
same,EC50,[3]; [21],500 ± 30 nM
same,EC50,[3]; [22],520 nM
same,Shift (fold),[3]; ZnCl2 (200 μM) vs WT,12.0 fold
same,EC50,THP-1 cells,> 16000 nM
same,EC50,"HepG2 cells; HepG2, read-out: HepG2 EC50",16100 nM
same,"Job's plot intercept, molar fraction (compound to Zn^2+)",[4],0.35
"NCCCC(N)(C(=O)O)C(F)F (stereo not drawn) [DFMO, difluoromethylornithine, reference compound]","Effect of exogenous divalent cations, including Fe^2+ and Zn^2+, on potency against T. brucei",[3]; control,failed to alter the potency
same,EC50,[3]; [23],39500 ± 900 nM
same,Cell-free FluoZin-3 fluorescence (competition for Zn^2+ binding),[6],did not affect the fluorescence levels
[Cl-].[Cl-].[Zn+2] [ZnCl2],Tolerated concentration of exogenous metal salt,[2],100 µM
same,Maximum concentration of metal salt having a minimal impact on cell growth,[3],200 µM
same,EC50,[3]; [23],619000 ± 12600 nM
same,Tolerated concentration of exogenous metal salt,HepG2 cells; HepG2 cells,100 µM
[Cl][Fe][Cl] [FeCl2],Tolerated concentration of exogenous metal salt,[2],100 µM
same,Maximum concentration of metal salt having a minimal impact on cell growth,[3],10 µM
same,EC50,[3]; [23],16800 ± 1400 nM
"c1ccc(CN(CCN(Cc2ccccn2)Cc2ccccn2)Cc2ccccn2)nc1 [TPEN, N,N,N′,N′-tetrakis(2-pyridylmethyl)ethane-1,2-diamine]",EC50,"[3]; Trypanosoma brucei, read-out: EC50 against bloodstream-form T. brucei, substance alone (Fig. S2), mean ± SEM",4100 ± 900 nM
same,Intracellular zinc level (FluoZin-3 fluorescence),[7],decrease in fluorescence
same,Intracellular zinc level (FluoZin-3 fluorescence),[8],decrease in fluorescence
same,Cell-free FluoZin-3 fluorescence (competition for Zn^2+ binding),[6],reduction in the level of fluorescence
same,Inhibition of L. donovani in vitro,L. donovani,inhibit
CC(=O)N(O)CCCCCNC(=O)CCC(=O)N(O)CCCCCNC(=O)CCC(=O)N(O)CCCCCN [deferoxamine],Growth inhibition of L. donovani in vitro,L. donovani,inhibit the growth
same,Growth inhibition of T. brucei in vitro,T. brucei,inhibit the growth
same,Growth inhibition of L. major in vitro,L. major,inhibits the growth
[Cl][Mn][Cl] [MnCl2],Maximum concentration of metal salt having a minimal impact on cell growth,[3]; T. brucei,10 µM
[Cl-].[Cl-].[Mg+2] [MgCl2],Maximum concentration of metal salt having a minimal impact on cell growth,[3]; T. brucei,1000 µM
